Results reported in the NIST ThermoML archive (doi:10.1021/je800110r).
Numbers after ± are expanded uncertainties.

Details: 293.15 K, Liquid, Vibrating tube method

CCCCCCCCCC [decane]
Details | mass density [kg/m3]
24834 kPa | 747.2 ± 2
24857 kPa | 747.4 ± 2
24883 kPa | 747.4 ± 2
24899 kPa | 747.3 ± 2
24926 kPa | 747.4 ± 2
24943 kPa | 747.5 ± 2
24972 kPa | 747.3 ± 2
24999 kPa | 747.4 ± 2
25019 kPa | 747.5 ± 2
25048 kPa | 747.5 ± 2
25068 kPa | 747.5 ± 2
25092 kPa | 747.5 ± 2
25116 kPa | 747.5 ± 2
25139 kPa | 747.5 ± 2
25163 kPa | 747.5 ± 2
25187 kPa | 747.6 ± 2
25218 kPa | 747.7 ± 2
25238 kPa | 747.6 ± 2
25269 kPa | 747.5 ± 2
25300 kPa | 747.7 ± 2
25320 kPa | 747.7 ± 2
25345 kPa | 747.6 ± 2
25370 kPa | 747.6 ± 2
25391 kPa | 747.7 ± 2
25419 kPa | 747.6 ± 2
25442 kPa | 747.7 ± 2.1
25468 kPa | 747.8 ± 2.1
25493 kPa | 747.7 ± 2.1
25512 kPa | 747.6 ± 2.1
25535 kPa | 747.8 ± 2.1
25557 kPa | 747.8 ± 2.1
25577 kPa | 747.8 ± 2.1
25599 kPa | 747.7 ± 2.1
25615 kPa | 747.7 ± 2.1
25638 kPa | 747.9 ± 2.1
25657 kPa | 747.8 ± 2.1
25680 kPa | 747.8 ± 2.1
25699 kPa | 747.8 ± 2.1
25720 kPa | 748 ± 2.1
25746 kPa | 747.9 ± 2.1
25766 kPa | 747.9 ± 2.1
25788 kPa | 747.9 ± 2.1
25808 kPa | 747.9 ± 2.1
25835 kPa | 748 ± 2.1
25861 kPa | 748 ± 2.1
25887 kPa | 748 ± 2.1
25907 kPa | 748.1 ± 2.1
25933 kPa | 747.9 ± 2.1
25959 kPa | 748 ± 2.1
25986 kPa | 748 ± 2.1
26006 kPa | 748.1 ± 2.1
26023 kPa | 748 ± 2.1
26040 kPa | 748.1 ± 2.1
26070 kPa | 748.1 ± 2.1
26093 kPa | 748.1 ± 2.1
26117 kPa | 748.1 ± 2.1
26145 kPa | 748.1 ± 2.1
26165 kPa | 748.2 ± 2.1
26192 kPa | 748.1 ± 2.1
26216 kPa | 748.1 ± 2.1
26243 kPa | 748.1 ± 2.1
26263 kPa | 748.4 ± 2.1
26291 kPa | 748.2 ± 2.1
26315 kPa | 748.2 ± 2.1
26335 kPa | 748.3 ± 2.1
26352 kPa | 748.3 ± 2.1
26370 kPa | 748.3 ± 2.1
26390 kPa | 748.4 ± 2.1
26408 kPa | 748.3 ± 2.1
26432 kPa | 748.3 ± 2.1
26453 kPa | 748.3 ± 2.1
26483 kPa | 748.4 ± 2.1
26516 kPa | 748.4 ± 2.1
26537 kPa | 748.4 ± 2.1
26568 kPa | 748.4 ± 2.1
26586 kPa | 748.5 ± 2.1
26607 kPa | 748.4 ± 2.1
26631 kPa | 748.5 ± 2.1
26652 kPa | 748.5 ± 2.1
26677 kPa | 748.4 ± 2.1
26694 kPa | 748.5 ± 2.1
26719 kPa | 748.4 ± 2.1
26741 kPa | 748.5 ± 2.1
26769 kPa | 748.5 ± 2.1
26795 kPa | 748.5 ± 2.1
26816 kPa | 748.5 ± 2.1
26841 kPa | 748.6 ± 2.1
26863 kPa | 748.5 ± 2.1
26885 kPa | 748.6 ± 2.1
26913 kPa | 748.7 ± 2.1
26935 kPa | 748.7 ± 2.1
26964 kPa | 748.7 ± 2.1
26989 kPa | 748.6 ± 2.1
27011 kPa | 748.7 ± 2.1
27036 kPa | 748.7 ± 2.1
27054 kPa | 748.6 ± 2.1
27077 kPa | 748.7 ± 2.1
27103 kPa | 748.7 ± 2.1
27128 kPa | 748.8 ± 2.1
27154 kPa | 748.7 ± 2.1
27173 kPa | 748.7 ± 2.1
27202 kPa | 748.8 ± 2.1
27232 kPa | 748.8 ± 2.1
27257 kPa | 748.8 ± 2.1
27280 kPa | 748.8 ± 2.1
27309 kPa | 748.8 ± 2.1
27328 kPa | 748.8 ± 2.1
27362 kPa | 749 ± 2.1
27385 kPa | 748.9 ± 2.1
27419 kPa | 748.9 ± 2.1
27438 kPa | 749 ± 2.1
27475 kPa | 749 ± 2.1
27501 kPa | 749 ± 2.1
27523 kPa | 749 ± 2.1
27557 kPa | 749.1 ± 2.1
27579 kPa | 749.1 ± 2.1
27609 kPa | 749.1 ± 2.1
27632 kPa | 749.1 ± 2.1
27667 kPa | 749.1 ± 2.1
27690 kPa | 749.2 ± 2.1
27713 kPa | 749.1 ± 2.1
27748 kPa | 749.3 ± 2.1
27770 kPa | 749.1 ± 2.1
27805 kPa | 749.2 ± 2.1
27827 kPa | 749.1 ± 2.1
27850 kPa | 749.2 ± 2.1
27877 kPa | 749.2 ± 2.1
27896 kPa | 749.1 ± 2.1
27924 kPa | 749.3 ± 2.1
27959 kPa | 749.2 ± 2.1
27983 kPa | 749.3 ± 2.1
28006 kPa | 749.4 ± 2.1
28033 kPa | 749.3 ± 2.1
28056 kPa | 749.4 ± 2.1
28076 kPa | 749.4 ± 2.1
28099 kPa | 749.3 ± 2.1
28123 kPa | 749.3 ± 2.1
